Test results from patent US6124269A, “2-Halo-6-O-substituted ketolide derivatives” (priority 1998, dated 2000).
Values after ≈ are worked out from the molar mass of the structure shown.

How the values were obtained:
Format in all cases: cell-based
[1] = system: Streptococcus pneumoniae 5979; experiment: In vitro agar dilution MIC, organism code ZZ; details: Table 1B, unit assumed
In short: (§1)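 A same-class reference antibiotic with known susceptibility was run alongside as a control for test-to-test comparability. Test compound was incorporated into BHI agar at twelve successive dilutions, spot-inoculated, incubated 20-24 h at 35-37° C, and MIC scored visually.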

[2] = system: Staphylococcus aureus ATCC 6538P; experiment: In vitro agar dilution MIC, organism code AA; details: Table 1B, unit assumed
In short: as §1

[3] = system: Staphylococcus aureus CMX 642A; experiment: In vitro agar dilution MIC, organism code DD; details: Table 1B, unit assumed
In short: as §1

[4] = system: Streptococcus pyogenes PIU 2548; experiment: In vitro agar dilution MIC, organism code NN; details: Table 1B, unit assumed
In short: as §1

[5] = system: Streptococcus agalactiae CMX 508; experiment: In vitro agar dilution MIC, organism code KK; details: Table 1B, unit assumed
In short: as §1

[6] = system: Micrococcus luteus ATCC 4698; experiment: In vitro agar dilution MIC, organism code PP; details: Table 1B, in µg/mL (unit assumed)
In short: as §1

Escherichia coli SS = experiment: In vitro agar dilution MIC, organism code RR; details: Table 1B, in µg/mL (unit assumed)
In short: as §1

[7] = system: Mycobacterium smegmatis ATCC 114; experiment: In vitro agar dilution MIC, organism code UU; details: Table 1B, in µg/mL (unit assumed)
In short: as §1

[8] = system: Streptococcus pneumoniae GYR 1171; experiment: In vitro agar dilution MIC, organism code YY; details: Table 1B, unit assumed
In short: as §1

[9] = system: Staphylococcus aureus CMX 553; experiment: In vitro agar dilution MIC, organism code FF; details: Table 1B, unit assumed
In short: as §1

Escherichia coli DC-2 = experiment: In vitro agar dilution MIC, organism code SS; details: Table 1B, unit assumed
In short: as §1

[10] = system: Streptococcus pyogenes 930; experiment: In vitro agar dilution MIC, organism code MM; details: Table 1B, unit assumed
In short: as §1

[11] = system: Streptococcus pneumoniae 5649; experiment: In vitro agar dilution MIC, organism code ZZA; details: Table 1B, unit assumed
In short: as §1

[12] = system: Streptococcus bovis A-5169; experiment: In vitro agar dilution MIC, organism code JJ; details: Table 1B, unit assumed
In short: as §1

[13] = system: Staphylococcus epidermidis 3519; experiment: In vitro agar dilution MIC, organism code HH; details: Table 1B, in µg/mL (unit assumed)
In short: as §1

[14] = system: Staphylococcus aureus NCTC10649M; experiment: In vitro agar dilution MIC, organism code EE; details: Table 1B, unit assumed
In short: as §1

[15] = system: Nocardia asteroides ATCC 9970; experiment: In vitro agar dilution MIC, organism code VV; details: Table 1B, in µg/mL (unit assumed)
In short: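 Agar plates of BHI carried graded compound concentrations and were inoculated with bacterial suspensions diluted 1:100, or 1:10 for slow-growing streptococci. After 20 to 24 hours of incubation at 35-37° C, the minimum inhibitory concentration was scored visually against a compound-free plate.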

[16] = system: Streptococcus pyogenes EES61; experiment: In vitro agar dilution MIC, organism code LL; details: Table 1B, unit assumed
In short: as §1

[17] = system: Staphylococcus aureus A-5278; experiment: In vitro agar dilution MIC, organism code CC; details: Table 1B, unit assumed
In short: as §1

[18] = system: Haemophilis influenzae DILL AMP R; experiment: In vitro agar dilution MIC, organism code WW; details: Table 1B, unit assumed
In short: as §1

[19] = system: Enterococcus faecium ATCC 8043; experiment: In vitro agar dilution MIC, organism code II; details: Table 1B, unit assumed
In short: as §1

[20] = system: Micrococcus luteus ATCC 9341; experiment: In vitro agar dilution MIC, organism code OO; details: Table 1B, unit assumed
In short: as §1

[21] = system: Streptococcus pneumoniae ATCC 6303; experiment: In vitro agar dilution MIC, organism code XX; details: Table 1B, unit assumed
In short: as §1

[22] = system: Staphylococcus aureus A5177; experiment: In vitro agar dilution MIC, organism code BB; details: Table 1B, in µg/mL (unit assumed)
In short: as §1

Escherichia coli JUHL = experiment: In vitro agar dilution MIC, organism code QQ; details: Table 1B, in µg/mL (unit assumed)
In short: as §1

[23] = system: Staphylococcus aureus 1775; experiment: In vitro agar dilution MIC, organism code GG; details: Table 1B, unit assumed
In short: as §1

Candida albicans CCH 442 = experiment: In vitro agar dilution MIC, organism code TT; details: Table 1B, unit assumed
In short: as §1

SMILES | MIC [1] [µg/mL] | MIC [2] [µg/mL] | MIC [3] [µg/mL] | MIC [4] [µg/mL] | MIC [5] [µg/mL] | MIC [6] | MIC (Escherichia coli SS) | MIC [7] | MIC [8] [µg/mL] | MIC [9] [µg/mL] | MIC (Escherichia coli DC-2) [µg/mL] | MIC [10] [µg/mL] | MIC [11] [µg/mL] | MIC [12] [µg/mL] | MIC [13] | MIC [14] [µg/mL] | MIC [15] | MIC [16] [µg/mL] | MIC [17] [µg/mL] | MIC [18] [µg/mL] | further results
CC[C@H]1OC(=O)[C@@](C)(F)C(=O)[C@H](C)[C@@H](O[C@@H]2O[C@H](C)C[C@H](N(C)C)[C@H]2O)[C@](C)(OC/C=C/c2cnc3ccc(N)cc3c2)C[C@@H](C)C(=O)[C@H](C)[C@H]2NC(=O)O[C@@]21C [Example 9] | 0.25 (≈ 0.313 µM) | 0.02 (≈ 0.025 µM) | 0.02 (≈ 0.025 µM) | 0.1 (≈ 0.125 µM) | ≤ 0.005 | 0.02 | 0.2 | 0.78 | 0.015 (≈ 0.0188 µM) | 0.02 (≈ 0.025 µM) | 25 (≈ 31.3 µM) | 0.2 (≈ 0.25 µM) | 1 (≈ 1.25 µM) | ≤ 0.005 | 0.02 | 0.05 (≈ 0.0626 µM) | < 0.005 | ≤ 0.005 | > 100 | 2 (≈ 2.5 µM) | MIC [19]: 0.01 µg/mL (≈ 0.0125 µM); MIC [20]: ≤ 0.005 µg/mL; MIC [21]: 0.015 µg/mL (≈ 0.0188 µM); MIC [22]: 0.02; MIC (Escherichia coli JUHL): 25; MIC [23]: > 100 µg/mL; MIC (Candida albicans CCH 442): > 100 µg/mL
CC[C@H]1OC(=O)[C@@](C)(F)C(=O)[C@H](C)[C@@H](O[C@@H]2O[C@H](C)C[C@H](N(C)C)[C@H]2O)[C@](C)(OC/C=C/c2cnc3ccc(C=O)cc3c2)C[C@@H](C)C(=O)[C@H](C)[C@H]2NC(=O)O[C@@]21C [Example 17] | 1 (≈ 1.23 µM) | 0.05 (≈ 0.0616 µM) | 0.1 (≈ 0.123 µM) | 0.2 (≈ 0.246 µM) | 0.02 (≈ 0.0246 µM) | 0.05 | 0.78 | 0.39 | 0.015 (≈ 0.0185 µM) | 0.1 (≈ 0.123 µM) | 100 (≈ 123 µM) | 0.78 (≈ 0.961 µM) | 0.5 (≈ 0.616 µM) | 0.01 (≈ 0.0123 µM) | 0.1 | 0.2 (≈ 0.246 µM) | 0.02 | 0.02 (≈ 0.0246 µM) | > 100 | 2 (≈ 2.46 µM) | MIC [19]: 0.05 µg/mL (≈ 0.0616 µM); MIC [20]: 0.02 µg/mL (≈ 0.0246 µM); MIC [21]: 0.03 µg/mL (≈ 0.0369 µM); MIC [22]: 0.1; MIC (Escherichia coli JUHL): 100; MIC [23]: > 100 µg/mL; MIC (Candida albicans CCH 442): > 100 µg/mL
CC[C@H]1OC(=O)[C@@](C)(F)C(=O)[C@H](C)[C@@H](O[C@@H]2O[C@H](C)C[C@H](N(C)C)[C@H]2O)[C@](C)(OC/C=C/c2cnc3ccc(NC(=O)OC(C)(C)C)cc3c2)C[C@@H](C)C(=O)[C@H](C)[C@H]2NC(=O)O[C@@]21C [Example 8] | 16 (≈ 17.8 µM) | 0.39 (≈ 0.434 µM) | 0.39 (≈ 0.434 µM) | 0.39 (≈ 0.434 µM) | 0.05 (≈ 0.0556 µM) | 0.39 | 6.2 | 0.78 | 0.06 (≈ 0.0667 µM) | 0.39 (≈ 0.434 µM) | > 100 | 12.5 (≈ 13.9 µM) | 1 (≈ 1.11 µM) | 0.05 (≈ 0.0556 µM) | 0.39 | 0.39 (≈ 0.434 µM) | 0.78 | 0.05 (≈ 0.0556 µM) | > 100 | 16 (≈ 17.8 µM) | MIC [19]: 0.2 µg/mL (≈ 0.222 µM); MIC [20]: 0.05 µg/mL (≈ 0.0556 µM); MIC [21]: 0.06 µg/mL (≈ 0.0667 µM); MIC [22]: 0.39; MIC (Escherichia coli JUHL): > 100; MIC [23]: > 100 µg/mL; MIC (Candida albicans CCH 442): > 100 µg/mL
